Laboratory results: PubChem BioAssay AID1963846 (Molecular Pharmacology Branch, DTP, NCI, 2024)

Tested on: 454973-116-R2-J3-PDC complex spheroid viability
Assay: Anticancer human tumor 454973-116-R2-J3-PDC patient-derived pancreatic carcinoma cell line growth inhibition [POLQ]
Details: for IC50: curve of first compound; for viability, T/C: stronger effect = lower value
Protocol: Multicellular complex tumor spheroid response to Polymerase (POL) inhibitors (novobiocin, ART-558, RP6685) in combination with a variety of drugs and investigational agents in selected tumor cell lines
The POL inhibitors (novobiocin, ART-558, and RP6685) were evaluated both individually and in combination with standard of care and investigational anticancer small molecules within a complex spheroid model of solid tumors. . Complex spheroids include a stromal component modeled by human endothelial cells (HUVEC) and fibroblasts modeled by human mesenchymal stem cells (MSCs). The concentration ranges selected for each drug and investigational agent were based upon clinically achievable concentrations if the clinical Cmax of the agent was known.
Compounds. The drugs and investigational agents: novobiocin (NSC847541), ART-558 (NSC835418), RP-6685 (NSC848927), peposertib (NSC802822), ceralasertib (NSC780249), elimusertib (NSC800525), camonsertib (NSC841442), AZD-1390 (NSC803789), olaparib (NSC753686), talazoparib (NSC767125), rucaparib (NSC756644), sotorasib (NSC818433), MRTX-1133 (NSC836407), SN-38 (NSC673596), topotecan (NSC609699), epotoside (NSC141540), doxorubicin (NSC123127), gemcitabine (NSC613327), 5-fluorouracil (NSC19893), paclitaxel (NSC125973), vemurafenib (NSC761431), MSA-2 (NSC828583), SN-011 (NSC837082), adavosertib (NSC754352), prexasertib (NSC758257), carboplatin (NSC241240) and oxaliplatin (NSC266046), were obtained from the National Cancer Institute (NCI) Developmental Therapeutics Program Chemical Repository (21). The FDA-approved anticancer drug set is available from the Developmental Therapeutics Program at https://dtp.cancer.gov/organization/dscb/obtaining/. […] The stock solutions were prepared in dimethyl sulfoxide (DMSO, Sigma-Aldrich, St. Louis, MO, cat. D2650), except for the platinum compounds which were prepared in saline (Quality Biological, Gaithersburg, MD, cat. 114-055-101), at 800-fold the tested concentration and stored at -70 degrees C prior to their use. All drugs and investigational agents were tested over a range starting from a high concentration at or near the clinical Cmax and decreasing in half-log increments. If the clinical Cmax for an agent had not been determined, the highest concentration tested was 10 microM, except for SN-38, which was tested at a high concentration of 1 microM.
Cell Culture. All cells were maintained in an incubator at 37 degrees C and 5% CO2 with 95% humidity. The PDC lines were cultured according to standard operating procedures established by the NCI PDMR (https://pdmr.cancer.gov). Table 3 of the manuscript, lists the cell lines along with the number of the three cell types plated to form the mct-spheroids and media for tumor cell growth. After thawing, all PDC lines, except 997537-175-T-J1-PDC and 415267-285-R-J2-PDC, were cultured in Matrigel-coated flasks prepared with a working solution of 1X Ham's F-12 nutrient mix, without supplementation (Thermo Fisher Scientific, cat. 11765054), 100 U/mL penicillin-streptomycin (Thermo Fisher Scientific, cat. 15140122), and 2.5% Matrigel (Corning Inc., Corning, NY, cat. 354248) for the first three passages. The two PDC lines 997537-175-T-J1-PDC and 415267-285-R-J2-PDC were cultured on uncoated flasks. The 857933-349-R-J2-PDC line was cultured in 6C/Colon 1B media containing advanced DMEM/F-12 (Thermo Fisher Scientific, cat. 12634028), 10 mM HEPES (Thermo Fisher Scientific, cat. 15630080), 1X GlutaMAX supplement (Thermo Fisher Scientific, cat. 35050061), 0.1 mg/mL primocin (InvivoGen, San Diego, CA, cat. ant-pm-2), 10% defined fetal bovine serum, heat inactivated (HyClone Laboratories Inc., Logan, UT, cat. SH30070.03HI), 50% L-WRN conditioned media (ATCC, cat. CRL-3276), 1.25 mM N-Acetyl-L-cysteine (Sigma-Aldrich, cat. A9165), 10 mM nicotinamide (Sigma-Aldrich, cat. N0636), 1X B-27 supplement (Thermo Fisher Scientific, cat. 17504044), 1X N-2 supplement (Thermo Fisher Scientific, cat. […]

[1] = second compound 0.0316 µM, first compound 0.0316 µM
[2] = second compound 0.0316 µM, first compound 0.1 µM
[3] = second compound 0.0316 µM, first compound 0.316 µM
[4] = second compound 0.0316 µM, first compound 1 µM
[5] = second compound 0.0316 µM, first compound 3.16 µM
[6] = second compound 0.0316 µM, first compound 10 µM
[7] = second compound 0.1 µM, first compound 0.0316 µM
[8] = second compound 0.1 µM, first compound 0.1 µM
[9] = second compound 0.1 µM, first compound 0.316 µM
[10] = second compound 0.1 µM, first compound 1 µM
[11] = second compound 0.1 µM, first compound 3.16 µM
[12] = second compound 0.1 µM, first compound 10 µM
[13] = second compound 0.316 µM, first compound 0.0316 µM
[14] = second compound 0.316 µM, first compound 0.1 µM
[15] = second compound 0.316 µM, first compound 0.316 µM
[16] = second compound 0.316 µM, first compound 1 µM
[17] = second compound 0.316 µM, first compound 3.16 µM
[18] = second compound 0.316 µM, first compound 10 µM
[19] = second compound 1 µM, first compound 0.0316 µM
[20] = second compound 1 µM, first compound 0.1 µM
[21] = second compound 1 µM, first compound 0.316 µM
[22] = second compound 1 µM, first compound 1 µM
[23] = second compound 1 µM, first compound 3.16 µM
[24] = second compound 1 µM, first compound 10 µM
[25] = second compound 3.16 µM, first compound 0.0316 µM
[26] = second compound 3.16 µM, first compound 0.1 µM
[27] = second compound 3.16 µM, first compound 0.316 µM
[28] = second compound 3.16 µM, first compound 1 µM
[29] = second compound 3.16 µM, first compound 3.16 µM
[30] = second compound 3.16 µM, first compound 10 µM
[31] = second compound 10 µM, first compound 0.0316 µM
[32] = second compound 10 µM, first compound 0.1 µM
[33] = second compound 10 µM, first compound 0.316 µM
[34] = second compound 10 µM, first compound 1 µM
[35] = second compound 10 µM, first compound 3.16 µM
[36] = second compound 10 µM, first compound 10 µM
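Also: spheroids exposed to drugs for seven days before measurement.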
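For viability, T/C in this document: percent viability relative to DMSO vehicle control wells taken as 100%.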

CC(C)n1c(=O)n(C)c2cnc3cc(F)c(-c4ccc(OCCCN5CCCCC5)nc4)cc3c21 + COC1C(OC(N)=O)C(O)C(Oc2ccc3c(O)c(NC(=O)c4ccc(O)c(CC=C(C)C)c4)c(=O)oc3c2C)OC1(C)C
IC50 (second compound 0.0316 µM): > 10 µM
IC50 (second compound 0.1 µM): > 10 µM
IC50 (second compound 0.316 µM): > 10 µM
IC50 (second compound 1 µM): > 10 µM
IC50 (second compound 3.16 µM): > 10 µM
IC50 (second compound 10 µM): > 10 µM
viability, T/C [1]: 99.5%
viability, T/C [2]: 108%
viability, T/C [3]: 114%
viability, T/C [4]: 110%
viability, T/C [5]: 111%
viability, T/C [6]: 85.9%
viability, T/C [7]: 107%
viability, T/C [8]: 112%
viability, T/C [9]: 108%
viability, T/C [10]: 114%
viability, T/C [11]: 93.7%
viability, T/C [12]: 95.6%
viability, T/C [13]: 115%
viability, T/C [14]: 113%
viability, T/C [15]: 113%
viability, T/C [16]: 116%
viability, T/C [17]: 105%
viability, T/C [18]: 88%
viability, T/C [19]: 116%
viability, T/C [20]: 107%
viability, T/C [21]: 115%
viability, T/C [22]: 112%
viability, T/C [23]: 100%
viability, T/C [24]: 93.8%
viability, T/C [25]: 118%
viability, T/C [26]: 107%
viability, T/C [27]: 112%
viability, T/C [28]: 116%
viability, T/C [29]: 106%
viability, T/C [30]: 92.5%
viability, T/C [31]: 120%
viability, T/C [32]: 103%
viability, T/C [33]: 101%
viability, T/C [34]: 107%
viability, T/C [35]: 101%
viability, T/C [36]: 84.9%

COc1cc2cc(C(=O)CCC(=O)O)sc2cc1OC + COC1C(OC(N)=O)C(O)C(Oc2ccc3c(O)c(NC(=O)c4ccc(O)c(CC=C(C)C)c4)c(=O)oc3c2C)OC1(C)C
IC50 (second compound 0.0316 µM): > 10 µM
IC50 (second compound 0.1 µM): > 10 µM
IC50 (second compound 0.316 µM): > 10 µM
IC50 (second compound 1 µM): > 10 µM
IC50 (second compound 3.16 µM): > 10 µM
IC50 (second compound 10 µM): > 10 µM
viability, T/C [1]: 95.3%
viability, T/C [2]: 100%
viability, T/C [3]: 102%
viability, T/C [4]: 121%
viability, T/C [5]: 113%
viability, T/C [6]: 96%
viability, T/C [7]: 101%
viability, T/C [8]: 115%
viability, T/C [9]: 99.3%
viability, T/C [10]: 118%
viability, T/C [11]: 111%
viability, T/C [12]: 102%
viability, T/C [13]: 109%
viability, T/C [14]: 110%
viability, T/C [15]: 120%
viability, T/C [16]: 110%
viability, T/C [17]: 104%
viability, T/C [18]: 97.2%
viability, T/C [19]: 107%
viability, T/C [20]: 102%
viability, T/C [21]: 127%
viability, T/C [22]: 110%
viability, T/C [23]: 107%
viability, T/C [24]: 93.8%
viability, T/C [25]: 110%
viability, T/C [26]: 103%
viability, T/C [27]: 105%
viability, T/C [28]: 112%
viability, T/C [29]: 105%
viability, T/C [30]: 93%
viability, T/C [31]: 114%
viability, T/C [32]: 102%
viability, T/C [33]: 93.6%
viability, T/C [34]: 100%
viability, T/C [35]: 99.4%
viability, T/C [36]: 90.5%

O=C(Nc1ccc(O)c(NS(=O)(=O)c2ccc(F)cc2)c1)c1ccc(-c2ccccc2)cc1 + COC1C(OC(N)=O)C(O)C(Oc2ccc3c(O)c(NC(=O)c4ccc(O)c(CC=C(C)C)c4)c(=O)oc3c2C)OC1(C)C
IC50 (second compound 0.0316 µM): > 10 µM
IC50 (second compound 0.1 µM): > 10 µM
IC50 (second compound 0.316 µM): > 10 µM
IC50 (second compound 1 µM): > 10 µM
IC50 (second compound 3.16 µM): > 10 µM
IC50 (second compound 10 µM): > 10 µM
viability, T/C [1]: 93%
viability, T/C [2]: 107%
viability, T/C [3]: 98.8%
viability, T/C [4]: 112%
viability, T/C [5]: 112%
viability, T/C [6]: 105%
viability, T/C [7]: 101%
viability, T/C [8]: 119%
viability, T/C [9]: 103%
viability, T/C [10]: 124%
viability, T/C [11]: 106%
viability, T/C [12]: 105%
viability, T/C [13]: 101%
viability, T/C [14]: 110%
viability, T/C [15]: 112%
viability, T/C [16]: 116%
viability, T/C [17]: 113%
viability, T/C [18]: 103%
viability, T/C [19]: 109%
viability, T/C [20]: 104%
viability, T/C [21]: 108%
viability, T/C [22]: 117%
viability, T/C [23]: 109%
viability, T/C [24]: 98.4%
viability, T/C [25]: 113%
viability, T/C [26]: 115%
viability, T/C [27]: 107%
viability, T/C [28]: 106%
viability, T/C [29]: 118%
viability, T/C [30]: 94.2%
viability, T/C [31]: 108%
viability, T/C [32]: 92.1%
viability, T/C [33]: 93.4%
viability, T/C [34]: 104%
viability, T/C [35]: 102%
viability, T/C [36]: 85.6%
